Data published in patent publication US8642593B2, “2,4-pyrimidinediamine compounds and prodrugs and their uses” (Rigel Pharmaceuticals, Inc., priority 2009, dated 2014).

Legend:
[1] = target: T1, VEGF-induced phosphorylation of VEGFR in HUVEC cells (Homo sapiens, UniProt P35968); test: Cellular VEGFR Assay; assay type: cell-based; conditions: for IC50: HUVEC cells, Table 2, unit inferred, read-out: Cellular VEGFR2; for selectivity against VEGF as compared to the control: vs control compound
T1 construct: VEGF-induced phosphorylation of VEGFR in HUVEC cells; host or cells: HUVEC cells
T1 sequence (P35968 20-1356): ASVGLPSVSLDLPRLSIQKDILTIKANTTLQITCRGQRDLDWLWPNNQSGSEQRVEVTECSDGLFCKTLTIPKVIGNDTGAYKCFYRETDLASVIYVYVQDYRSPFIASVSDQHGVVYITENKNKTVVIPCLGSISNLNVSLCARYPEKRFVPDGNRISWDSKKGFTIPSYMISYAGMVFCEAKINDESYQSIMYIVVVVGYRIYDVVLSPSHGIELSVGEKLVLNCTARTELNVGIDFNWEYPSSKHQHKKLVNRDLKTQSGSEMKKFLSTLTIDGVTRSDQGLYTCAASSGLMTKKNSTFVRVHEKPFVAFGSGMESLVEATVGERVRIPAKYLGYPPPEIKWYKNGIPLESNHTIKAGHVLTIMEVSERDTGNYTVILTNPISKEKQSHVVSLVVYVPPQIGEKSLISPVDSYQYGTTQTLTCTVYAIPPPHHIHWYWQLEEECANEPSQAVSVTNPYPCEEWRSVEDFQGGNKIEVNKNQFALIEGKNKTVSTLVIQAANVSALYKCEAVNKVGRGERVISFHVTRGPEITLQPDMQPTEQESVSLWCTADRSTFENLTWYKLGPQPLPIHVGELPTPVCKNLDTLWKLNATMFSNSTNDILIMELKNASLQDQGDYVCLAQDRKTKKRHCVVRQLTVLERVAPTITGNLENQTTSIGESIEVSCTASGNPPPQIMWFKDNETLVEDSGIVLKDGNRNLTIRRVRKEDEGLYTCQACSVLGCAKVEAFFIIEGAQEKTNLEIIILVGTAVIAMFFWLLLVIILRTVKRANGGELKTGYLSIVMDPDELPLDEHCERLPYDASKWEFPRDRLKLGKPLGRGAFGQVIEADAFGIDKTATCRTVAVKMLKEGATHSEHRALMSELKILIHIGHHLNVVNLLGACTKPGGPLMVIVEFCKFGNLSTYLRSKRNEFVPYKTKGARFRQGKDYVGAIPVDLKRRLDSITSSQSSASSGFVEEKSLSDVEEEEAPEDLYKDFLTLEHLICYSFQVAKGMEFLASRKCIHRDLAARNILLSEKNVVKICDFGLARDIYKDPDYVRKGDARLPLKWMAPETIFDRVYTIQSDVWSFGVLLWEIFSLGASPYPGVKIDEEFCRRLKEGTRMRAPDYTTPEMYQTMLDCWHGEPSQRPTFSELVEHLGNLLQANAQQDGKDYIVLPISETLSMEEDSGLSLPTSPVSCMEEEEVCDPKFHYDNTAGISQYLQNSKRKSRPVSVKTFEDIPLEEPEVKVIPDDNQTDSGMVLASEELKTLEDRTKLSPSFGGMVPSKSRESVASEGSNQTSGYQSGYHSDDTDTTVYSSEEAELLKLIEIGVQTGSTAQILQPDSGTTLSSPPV
Description: The coated plates are then blocked with 2% BSA in PBS for 2 hours.
Cells are washed 1× with PBS. 100 μL starvation medium (EBM2 media, Cambrex, #CC3156, containing 1% BSA and 0.2% FBS) is added and cells are returned to the incubator for 20-24 hours. Test compounds or control drugs are serially diluted in DMSO in a compound plate and further diluted 1:250 in starvation medium. 100 μL, of this 2× concentration is dosed to the cells. […] Plates are then placed on a rocker/shaker at 4° C. for 1 hour.
Phosphorylated VEGFR2 is determined by ELISA. After a wash with TBST, 30 μL/well of the cell lysate is transferred into the anti-human VEGFR2 mAb-coated plates (described above) containing 200 μL/well of 1% BSA in PBS, and incubated with shaking at 4° C. overnight. […] The signal is read using a SpectraMax M5 plate reader.

[2] = system: allergen induced basophil degranulation; test: CD63 Assay (BASOTEST, FACS, whole blood, anti-IgE); assay type: cell-based; conditions: for potency compared with the control in the presence of whole blood (CD63 assay): vs control compound; for IC50: whole blood, anti-IgE, Table 2, unit inferred
Description: Compounds are tested for the ability to inhibit allergen induced basophil degranulation. The BASOTEST® kit (Orpegen Pharma GmbH, #10-0500) is used in this assay. In a 5 mL FACS tube 105 μL of Heparinized whole blood, 25 μL of test compound solution (in DMSO) are incubated at room temperature for 30-60 minutes. To induce degranulation, 20 μL stimulation buffer (Reagent B) is added, and the tube is incubated for 10 min in a 37° C. water bath. Then, 100 μL of anti-IgE (2 μg/mL) is added, or 100 µL of washing solution (reagent A) is added (i.e., as a negative control). The tube is incubated for 20 min in a 37° C. water bath. Degranulation is then stopped by incubation on ice for 5 min. 20 μL of staining reagent (reagent F) is added, and the tube is incubated on ice in the dark for 20 min. 2 mL of room temperature lysing solution is added, and the tube is incubated at room temperature for 10 min. The tubes are spun down at 4° C. for 5 min at 1600 rpm, and the supernatant is discarded. 3 mL washing solution (reagent A) is added, and the tubes spun down at 4° C. for 5 min at 1600 rpm, and the supernatant is discarded. 200 μL washing solution is added to the remaining cell pellet, and the samples are incubated on ice in the dark until analysis (within 2 h). Analysis is performed using flow cytometry at 488 nm using the conditions specified in the BASOTEST® kit instructions to determine percentage of activated basophilic granulocytes.

KDR/VEGFR2 enzyme = target: T2, KDR/VEGFR2 enzyme (Homo sapiens, UniProt P35968); test: Biochemical VEGFR Assay (ELISA); conditions: Table 2, unit inferred; read-out: Biochem VEGFR2
T2 construct: purchased Millipore #14-630
T2 sequence (P35968 790-1356 limits assumed): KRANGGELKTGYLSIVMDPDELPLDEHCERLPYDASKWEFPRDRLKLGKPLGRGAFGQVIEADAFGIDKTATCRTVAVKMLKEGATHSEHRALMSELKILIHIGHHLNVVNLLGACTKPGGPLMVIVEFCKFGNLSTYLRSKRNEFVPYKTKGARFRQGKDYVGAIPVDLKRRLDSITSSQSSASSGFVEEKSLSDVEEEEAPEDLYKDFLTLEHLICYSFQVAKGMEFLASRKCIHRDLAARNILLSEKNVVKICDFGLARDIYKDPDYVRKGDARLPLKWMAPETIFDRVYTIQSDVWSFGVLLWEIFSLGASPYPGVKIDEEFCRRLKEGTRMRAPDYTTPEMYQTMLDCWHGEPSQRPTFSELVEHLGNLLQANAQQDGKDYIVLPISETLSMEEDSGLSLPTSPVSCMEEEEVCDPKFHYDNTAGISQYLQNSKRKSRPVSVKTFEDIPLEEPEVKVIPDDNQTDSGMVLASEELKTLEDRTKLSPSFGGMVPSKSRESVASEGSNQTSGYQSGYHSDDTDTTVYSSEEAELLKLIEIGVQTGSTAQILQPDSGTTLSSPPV
Description: Compounds are tested for the ability to inhibit VEGF2 in an ELISA assay. […] Plates are then washed with 1×PBST using a plate washer, then blocked with 2% BSA in 1×PBST (100 μL/well) for 1 hr at room temperature. The NeutrAvidin-coated plates are again washed with 1×PBST using a plate washer.
The mixed test compound/reaction solutions are added to the wells of the NeutrAvidin-coated plates (50 μL/well). 6× enzyme solution (1000 parts kinase buffer, 0.6 parts KDR/VEGFR2 enzyme (50 μg/mL, Millipore, #14-630) is added to all wells except those designated as negative controls. The plates are incubated for 30 minutes on a shaker at room temperature.
The detection reagent is added at 100 μL/well, and the plates are incubated for 60 minutes at room temperature, then washed with 1×PBST using a plate washer.

[3] = target: T3, Ret kinase in SK-N-SH brain neuroblastoma cells (Homo sapiens, UniProt P07949); test: Cellular Ret Assay; assay type: cell-based; conditions: GDNF, Table 2, unit inferred
T3 construct: Ret is immunoprecipitated from the detergent-soluble cell lysate; host or cells: SK-N-SH brain neuroblastoma cells
T3 sequence (P07949 29-1114): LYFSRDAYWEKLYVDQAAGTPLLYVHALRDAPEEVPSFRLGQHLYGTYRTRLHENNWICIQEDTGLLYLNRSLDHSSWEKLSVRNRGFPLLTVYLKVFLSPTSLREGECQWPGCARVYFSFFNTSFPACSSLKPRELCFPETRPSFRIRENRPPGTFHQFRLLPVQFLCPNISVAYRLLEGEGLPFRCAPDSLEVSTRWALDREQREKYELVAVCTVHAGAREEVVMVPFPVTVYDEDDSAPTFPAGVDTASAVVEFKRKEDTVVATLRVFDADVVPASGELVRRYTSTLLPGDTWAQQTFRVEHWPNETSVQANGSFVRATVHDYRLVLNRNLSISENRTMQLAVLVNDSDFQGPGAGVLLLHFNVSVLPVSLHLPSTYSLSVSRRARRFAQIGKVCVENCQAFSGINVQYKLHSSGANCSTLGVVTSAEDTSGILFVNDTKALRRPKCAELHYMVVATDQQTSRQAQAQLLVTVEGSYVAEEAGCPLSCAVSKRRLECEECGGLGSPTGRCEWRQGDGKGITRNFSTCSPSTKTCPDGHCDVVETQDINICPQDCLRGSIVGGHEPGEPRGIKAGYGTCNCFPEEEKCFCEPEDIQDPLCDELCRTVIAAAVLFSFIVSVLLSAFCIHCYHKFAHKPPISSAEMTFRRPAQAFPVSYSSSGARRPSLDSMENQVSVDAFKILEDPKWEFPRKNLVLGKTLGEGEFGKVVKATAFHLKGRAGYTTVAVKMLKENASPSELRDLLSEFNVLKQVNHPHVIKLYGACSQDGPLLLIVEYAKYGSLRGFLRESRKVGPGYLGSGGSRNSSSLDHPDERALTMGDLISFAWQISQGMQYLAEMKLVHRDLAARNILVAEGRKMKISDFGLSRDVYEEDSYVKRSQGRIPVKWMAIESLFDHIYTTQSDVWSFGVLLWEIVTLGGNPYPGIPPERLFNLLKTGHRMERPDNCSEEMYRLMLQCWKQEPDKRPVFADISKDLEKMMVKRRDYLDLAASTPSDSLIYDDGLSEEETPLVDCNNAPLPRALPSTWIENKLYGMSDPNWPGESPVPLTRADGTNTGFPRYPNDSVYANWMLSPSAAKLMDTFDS
Description: Compounds are tested for the ability to inhibit Ret kinase in cells. SK-N-SH brain neuroblastoma cells (ATCC, #HTB-1, maintained and plated in DMEM (Cellgro Mediatech, #10-013-CV) with 10% fetal bovine serum (JRH, #12106-500M) are seeded in 10 cm plates in 10 mL of culture media and allowed to reach 85% confluence by the next day. The medium is replaced with 5 mL of DMEM (without fetal bovine serum) containing DMSO or test compound (final 0.1% DMSO), and incubated at 37° C./5% CO2 for 1 hour. SK-N-SH cells are then stimulated with 50 ng/mL of human recombinant GDNF (Peprotech, #450-10) for 10 minutes. Cells are washed once with cold 1×PBS and lysed with 500 μL of 1% NP-40 lysis buffer (Tris HCl pH 7.4 with 150 mM NaCl, 1 mM NaVn, 1% Nonidet-P40 (Fisher Scientific, #PI-28324), protease inhibitor tablet (Roche, 1697498)). […]
After washing with 1×TBST for 2 hours with five buffer changes, the membrane is probed with Goat anti-Mouse IgG HRP antibody (Jackson Immunoresearch Labs, #115-035-146, 1:2000) in 1×TBST+5% milk for 1 hour at room temperature. The membrane is washed with TBST for 2 hours with five buffer changes, treated with ECL plus Western Blot detection reagent (GE Healthcare, formerly Amersham, #RPN2132) according to the instruction manual, and the chemiluminescent signal is detected on Kodak Biomax MR Film (VWR, # IB8701302).

Ret kinase = target: T4, Ret kinase (Homo sapiens, UniProt P07949); test: Biochemical Ret Assay (ELISA-based); conditions: for IC50: Table 2, unit inferred, read-out: Biochem Ret; for selectivity over Ret kinase compared with the control: vs control compound
T4 construct: purchased Millipore #14-570
T4 sequence (P07949 658-1114 limits assumed): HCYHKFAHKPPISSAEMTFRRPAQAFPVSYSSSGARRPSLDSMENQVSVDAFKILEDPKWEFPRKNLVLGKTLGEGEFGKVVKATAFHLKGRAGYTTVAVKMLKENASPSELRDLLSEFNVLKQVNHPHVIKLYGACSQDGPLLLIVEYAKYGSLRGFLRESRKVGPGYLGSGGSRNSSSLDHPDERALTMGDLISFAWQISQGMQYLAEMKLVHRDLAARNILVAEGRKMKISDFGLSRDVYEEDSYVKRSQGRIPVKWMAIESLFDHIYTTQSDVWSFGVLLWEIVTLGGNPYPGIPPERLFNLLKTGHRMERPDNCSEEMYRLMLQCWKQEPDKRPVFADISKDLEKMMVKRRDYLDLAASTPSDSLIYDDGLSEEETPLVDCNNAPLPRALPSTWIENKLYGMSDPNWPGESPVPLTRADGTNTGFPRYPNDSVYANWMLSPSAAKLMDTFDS
Description: Compounds are tested for the ability to inhibit Ret kinase in an ELISA-based assay. The assay is carried out in a Costar white 96 well plate (Fisher Scientific, #07-200-591) coated overnight with 0.01 mg/mL NeutrAvidin (Pierce, 100 μL/well) at 4° C. The pre-coated 96 well plate is blocked with 2% BSA in PBST buffer for at least 1 h at room temperature before starting the assay. Serially diluted test compound stock solution is prepared separately in DMSO solution starting from 300 μM, and 2 μL/well of this diluted compound (3% DMSO final concentration) is added directly to the NeutrAvidin coated assay plate containing 55.5 μL/well of kinase reaction buffer (20 mM HEPES, pH 7.4, 5 mM MgCl2, 1 mM DTT, 0.01% Brij-35) pre-mixed with ATP and kinase substrate (TK2 peptide). Reaction is initiated by adding 2.5 μL/well Ret kinase (Millipore, #14-570) resulting in a final reaction volume of […]. The reaction is allowed to continue for 30 minutes at room temperature. […] After completing the reaction, the wells are washed three times with PBST and incubated for 1 h at room temperature with 100 μL/well of phosphopeptide detection antibody solution (mixture of 1:10000 diluted mouse anti-pTyr monoclonal antibody (Cell Signal Technology, #9411) and 1:10000 diluted goat HRP-conjugated anti-mouse IgG (Jackson Immunoresearch, #115-035-003)). The plate is washed three times with PBST, developed with supersignal ELISA pico chemiluminescent substrate (Pierce), and read on a SpectraMax M5 microplate reader (Molecular Devices).

Row | IC50 [1] | selectivity against VEGF as compared to the control [1] | IC50 [2] | IC50 (KDR/VEGFR2 enzyme) | IC50 [3] | IC50 (Ret kinase) | selectivity over Ret kinase compared with the control (Ret kinase) | SMILES | potency compared with the control in the presence of whole blood (CD63 assay) [2]
1 | 16800 nM | significantly increased selectivity | 250 nM | 770 nM | > 5000 nM | 48 nM | significantly more selective | CC1(C)Oc2ccc(Nc3nc(Nc4ccc(N5CCOCC5)nc4)ncc3F)nc2NC1=O [Compound 1, N4-(2,2-Dimethyl-3-oxo-4H-5-pyrido[1,4]oxazin-6-yl)-5-fluoro-N2-[6-morpholinopyridin-3-yl]-2,4-pyrimidinediamine] | more potent
2 | 5230 nM | significantly increased selectivity | 300 nM | 340 nM | > 1000 nM | 6 nM | significantly more selective | CC1(C)Oc2ccc(Nc3nc(Nc4ccc(N5CCOCC5)cc4)ncc3F)nc2NC1=O [Compound 3, N4-(2,2-Dimethyl-3-oxo-4H-5-pyrido[1,4]oxazin-6-yl)-5-fluoro-N2-(4-morpholinophenyl)-2,4-pyrimidinediamine] | more potent
